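Where inhibition never reached the appropriate level, the endpoint shown equals the highest concentration tested. Otherwise, values were interpolated linearly from a five-concentration, 48-hour dose response in 96-well plates. Here, GI50 denotes the concentration required for 50% inhibition of growth. The concentration for full growth arrest is given as TGI.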
Assays:
Test in all cases: NCI anticancer screen, dose series, 48 h
HOP-62 NSCLC = system: HOP-62 NSCLC
SN12C renal = system: SN12C renal
SK-MEL-28 melanoma = system: SK-MEL-28 melanoma
HOP-92 NSCLC = system: HOP-92 NSCLC
SF-539 CNS = system: SF-539 CNS
RPMI-8226 leukemia = system: RPMI-8226 leukemia
HT29 colon = system: HT29 colon
COLO 205 colon = system: COLO 205 colon
786-0 renal = system: 786-0 renal
IGROV1 ovarian = system: IGROV1 ovarian
CCRF-CEM leukemia = system: CCRF-CEM leukemia
M14 melanoma = system: M14 melanoma
UO-31 renal = system: UO-31 renal
SK-MEL-2 melanoma = system: SK-MEL-2 melanoma
MALME-3M melanoma = system: MALME-3M melanoma
MCF7 breast = system: MCF7 breast
BT-549 breast = system: BT-549 breast
OVCAR-5 ovarian = system: OVCAR-5 ovarian
OVCAR-8 ovarian = system: OVCAR-8 ovarian
SK-OV-3 ovarian = system: SK-OV-3 ovarian
NCI-H226 lung = system: NCI-H226 lung
RXF 393 renal = system: RXF 393 renal
HS 578T breast = system: HS 578T breast
TK-10 renal = system: TK-10 renal
PC-3 prostate = system: PC-3 prostate
OVCAR-3 ovarian = system: OVCAR-3 ovarian
SNB-19 CNS = system: SNB-19 CNS
OVCAR-4 ovarian = system: OVCAR-4 ovarian
UACC-257 melanoma = system: UACC-257 melanoma
MDA-MB-231 breast = system: MDA-MB-231 breast
SF-268 CNS = system: SF-268 CNS
CAKI-1 renal = system: CAKI-1 renal
HL-60(TB) leukemia = system: HL-60(TB) leukemia
EKVX NSCLC = system: EKVX NSCLC
SR leukemia = system: SR leukemia
MDA-MB-435 = system: MDA-MB-435
A549 NSCLC = system: A549 NSCLC
NCI-H460 lung = system: NCI-H460 lung
K-562 leukemia = system: K-562 leukemia
MOLT-4 leukemia = system: MOLT-4 leukemia
UACC-62 melanoma = system: UACC-62 melanoma
NCI-H23 lung = system: NCI-H23 lung
T-47D breast = system: T-47D breast
NCI/ADR-RES ovarian = system: NCI/ADR-RES ovarian
HCT-15 colon = system: HCT-15 colon
HCT-116 colon = system: HCT-116 colon
NCI-H522 lung = system: NCI-H522 lung
ACHN renal = system: ACHN renal
SK-MEL-5 melanoma = system: SK-MEL-5 melanoma
HCC-2998 colon = system: HCC-2998 colon
DU-145 prostate = system: DU-145 prostate
SNB-75 CNS = system: SNB-75 CNS
SF-295 CNS = system: SF-295 CNS
KM12 colon = system: KM12 colon
SW-620 colon = system: SW-620 colon
LOX IMVI melanoma = system: LOX IMVI melanoma
U251 CNS = system: U251 CNS
A498 renal = system: A498 renal

## CC(=O)Nc1cc(F)cc(-c2ccc3[nH]cc(-c4ccccc4)c3n2)c1
HOP-62 NSCLC
  GI50: 4.2 µM
  TGI: 17.4 µM
SN12C renal
  GI50: 6.7 µM
  TGI: 21.9 µM
SK-MEL-28 melanoma
  GI50: 2430 nM
  TGI: 6.13 µM
HOP-92 NSCLC
  GI50: 2970 nM
  TGI: 9.63 µM
SF-539 CNS
  GI50: 2970 nM
  TGI: 10.7 µM
RPMI-8226 leukemia
  GI50: 3.08 µM
  TGI: 19.2 µM
HT29 colon
  GI50: 2210 nM
  TGI: 5.15 µM
COLO 205 colon
  GI50: 2170 nM
  TGI: 4.69 µM
786-0 renal
  GI50: 2220 nM
  TGI: 5.65 µM
IGROV1 ovarian
  GI50: 5.04 µM
  TGI: 21.1 µM
CCRF-CEM leukemia
  GI50: 3.42 µM
  TGI: 17.9 µM
M14 melanoma
  GI50: 2650 nM
  TGI: 7.85 µM
UO-31 renal
  GI50: 3.88 µM
  TGI: 14.8 µM
SK-MEL-2 melanoma
  GI50: 2460 nM
  TGI: 6.8 µM
MALME-3M melanoma
  GI50: 3.5 µM
  TGI: 12.8 µM
MCF7 breast
  GI50: 2900 nM
  TGI: 12.3 µM
BT-549 breast
  GI50: 4.78 µM
  TGI: 17 µM
OVCAR-5 ovarian
  GI50: 4.92 µM
  TGI: 22.1 µM
OVCAR-8 ovarian
  GI50: 6.16 µM
  TGI: 44.3 µM
SK-OV-3 ovarian
  GI50: 6.84 µM
  TGI: 21.3 µM
NCI-H226 lung
  GI50: 6.31 µM
  TGI: 23 µM
RXF 393 renal
  GI50: 2500 nM
  TGI: 7.97 µM
HS 578T breast
  GI50: 5.01 µM
  TGI: 47.7 µM
TK-10 renal
  GI50: 6 µM
  TGI: 18.3 µM
PC-3 prostate
  GI50: 3.33 µM
  TGI: 16 µM
OVCAR-3 ovarian
  GI50: 5.08 µM
  TGI: 17.8 µM
SNB-19 CNS
  GI50: 3.9 µM
  TGI: 13.9 µM
OVCAR-4 ovarian
  GI50: 5.44 µM
  TGI: 18.6 µM
UACC-257 melanoma
  GI50: 2320 nM
  TGI: 5.96 µM
MDA-MB-231 breast
  GI50: 3.46 µM
  TGI: 12.7 µM
SF-268 CNS
  GI50: 5.12 µM
  TGI: 22 µM
CAKI-1 renal
  GI50: 3.32 µM
  TGI: 12.2 µM
HL-60(TB) leukemia
  GI50: 2720 nM
  TGI: 10.7 µM
EKVX NSCLC
  GI50: 4.71 µM
  TGI: 21.5 µM
SR leukemia
  GI50: 2750 nM
  TGI: 8.4 µM
MDA-MB-435
  GI50: 4.05 µM
  TGI: 15.5 µM
A549 NSCLC
  GI50: 3.6 µM
  TGI: 16.7 µM
NCI-H460 lung
  GI50: 3.37 µM
  TGI: 14.6 µM
K-562 leukemia
  GI50: 2790 nM
  TGI: 9.11 µM
MOLT-4 leukemia
  GI50: 2260 nM
  TGI: 10.4 µM
UACC-62 melanoma
  GI50: 3.34 µM
  TGI: 11.9 µM
NCI-H23 lung
  GI50: 4.98 µM
  TGI: 20 µM
T-47D breast
  GI50: 4.77 µM
  TGI: 29.1 µM
NCI/ADR-RES ovarian
  GI50: 3.99 µM
  TGI: 23 µM
HCT-15 colon
  GI50: 2080 nM
  TGI: 5.05 µM
HCT-116 colon
  GI50: 3.33 µM
  TGI: 12 µM
NCI-H522 lung
  GI50: 1830 nM
  TGI: 4.11 µM
ACHN renal
  GI50: 4.08 µM
  TGI: 14.3 µM
SK-MEL-5 melanoma
  GI50: 4.07 µM
  TGI: 15 µM
HCC-2998 colon
  GI50: 2110 nM
  TGI: 4.71 µM
DU-145 prostate
  GI50: 5.52 µM
  TGI: 17.9 µM
SNB-75 CNS
  GI50: 4.93 µM
  TGI: 18.1 µM
SF-295 CNS
  GI50: 2100 nM
  TGI: 5.16 µM
KM12 colon
  GI50: 1870 nM
  TGI: 3.56 µM
SW-620 colon
  GI50: 3.31 µM
  TGI: 25.3 µM
LOX IMVI melanoma
  GI50: 1750 nM
  TGI: 3.39 µM
U251 CNS
  GI50: 3.73 µM
  TGI: 16.1 µM
A498 renal
  GI50: 3.75 µM
  TGI: 12.7 µM

— PubChem BioAssay (NCI)
